From patent US20200181284A1, “EPIGENETIC INHIBITORS FOR SENSITIZING HEMATOLOGIC OR OTHER MALIGNANCIES TO GLUCOCORTICOID THERAPY” (UNIVERSITY OF SOUTHERN CALIFORNIA, priority 2017, published 2020)

Legend:
[1] = system: G9a and GLP coactivator function with GR; assay: Transient MMTV-LUC luciferase reporter gene assay in CV-1 cells (GR, GRIP1, G9a or GLP); format: cell-based, human
Method: CV-1 cells were plated in hormone-free medium with 5% charcoal-stripped serum in 24-well plates the day before transfection. Cells were transfected using Lipofectamine 2000 (Invitrogen) with the indicated plasmids according to the manufacturer's protocol. After transfection, the cells were grown in hormone-free medium for 48 h in the presence or absence of 100 nM dex. Cell lysis and luciferase assays on cell extracts were performed with Promega luciferase assay kit. An aliquot of the cell lysate was reserved for immunoblot analysis of input samples. The results were normalized as indicated and presented as the mean±SEM of at least four independent experiments.
The results as shown in FIGS. 20A-20D generally highlight that G9a and GLP PTMs regulate their coactivator function. For FIG. 20A, CV-1 cells were transfected with MMTV-LUC reporter plasmid (200 ng) and plasmids encoding GR (1 ng), Grip1 (100 ng) and HA-labeled full length (FL) hG9a wild type or K185A or K185R mutants (150 or 400 ng) as indicated. Cells were grown with 100 nM dex or the equivalent amount of ethanol for 48 h and assayed for luciferase activity. Relative luciferase units are normalized to sample 3 and represent mean±SEM for eight independent experiments. p-value was calculated using a paired t-test. *p≤0.05, **p≤0.01. Whole-cell extracts were analyzed for G9a expression by immunoblot with anti-HA antibody. For FIG. 20B, transient reporter gene assays were performed as in A with HA-labeled hGLP WT or hGLP K205A (150 or 400 ng) as indicated. Relative luciferase units are normalized to sample 3 and represent mean±SEM for six independent experiments. p-value was calculated using a paired t-test. *p≤0.05. […] Relative luciferase units are normalized to sample 3 and represent mean±SEM for four independent experiments. p-value was calculated using a paired t-test. * * *p≤0.001. […] Relative luciferase units are normalized to sample 3 and represent mean±SEM for four independent experiments. p-value was calculated using a paired t-test. *p≤0.05. […]

GR-HP1γ interaction = assay: Proximity ligation assay of GR and HP1γ in A549 cells; format: cell-based, human
Method: The experiments were performed following the manufacturer's instructions as previously described. Cells were grown on coverslips in 12-well plates, fixed in methanol for 2 min, and then washed twice in PBS. Firstly, the samples were saturated using the blocking solution, then different pairs of primary antibodies (HP1γ (Abcam ab10480) and GR (Santa Cruz sc-393232) in order to analyze HP1γ-GR, G9a (Sigma G6919) and HP1γ (Abcam ab56978) in order to analyze HP1γ-G9a interaction and HA-Tag (6E2) (Cell signaling #2367) and HP1γ (Abcam ab10480) in order to analyze HA- HP1γ interaction) were incubated with the fixed cells for 1 h at 37° C. […] Afterwards, the samples were mounted with Duolink II Mounting Medium containing Dapi in order to counterstain nuclei, and then analyzed on Zeiss Imager.Z1 fluorescence microscope. For each sample interactions were counted for 1000 cells using Image J software [46b].
The results as shown in FIGS. 18A-18E generally highlight that G9a and GLP methylation is required for HP1γ-G9a/GLP-GR ternary complex formation. […] The detected interactions are indicated by red dots. […] The number of interactions detected by Image J analysis is shown as the mean±SEM of three independent experiments. p-value was determined using a paired t-test. **p≤0.01. […] Whole-cell extracts were analyzed for G9a, GLP, GR, HP1γ and β-actin expression by immunoblot. […]

## Clc1ccc(N/N=C(\c2ccccc2)c2ccccn2)nc1 [JIB-04, 5-chloro-N-[(E)-[phenyl(pyridin-2-yl)methylidene]amino]pyridin-2-amine]
[1]; GR, GRIP1 and wild type G9a
  dex-induced expression of the reporter gene: enhanced
[1]; mutant G9a with the methylation site mutated from lysine to arginine
  dex-induced expression of the reporter gene: no effect
GR-HP1γ interaction; A549 cells treated with dex and JIB-04
  dex-induced interaction between GR and HP1γ in PLA: enhanced

## COc1cc2c(NC3CCN(C4CCCCC4)CC3)nc(N3CCCN(C(C)C)CC3)nc2cc1OCCCN1CCCCC1 [UNC0646]
GR-HP1γ interaction; A549 cells, 2 μM UNC0646 24 h, 100 nM dex for the final 2 h
  GR-HP1γ interaction in PLA: strongly decreased

## COc1cc2c(Nc3ccc(NC(=O)c4ccccc4)cc3)ncnc2cc1OCCCN1CCOCC1 [ZM447439, N-[4-[[6-methoxy-7-(3-morpholin-4-ylpropoxy)quinazolin-4-yl]amino]phenyl]benzamide]
[1]; 100 nM dex and 2 μM ZM447439, 48 h
  coactivator function of G9a and GLP, in cooperation with GRIP1: significantly enhanced
